Results taken from patent US20250066316A1, “CRYSTALLINE FORMS OF A COMPOUND FOR TREATING OR PREVENTING GOUT OR HYPERURICEMIA” (Arthrosi Therapeutics, Inc., priority 2021, published 2025).

What was measured:
[1] = target: T1, human URAT1 uptake transporter (Homo sapiens, UniProt Q96S37); test: In vitro interaction with the human URAT1 uptake transporter (uric acid uptake in MDCKII cells); assay type: cell-based; conditions: for inhibition at 10 µM: MDCK-II, read-out: inhibition of URAT1 mediated uric acid accumulation
T1 construct: expressed in transfected cells
T1 sequence (Q96S37 1-553): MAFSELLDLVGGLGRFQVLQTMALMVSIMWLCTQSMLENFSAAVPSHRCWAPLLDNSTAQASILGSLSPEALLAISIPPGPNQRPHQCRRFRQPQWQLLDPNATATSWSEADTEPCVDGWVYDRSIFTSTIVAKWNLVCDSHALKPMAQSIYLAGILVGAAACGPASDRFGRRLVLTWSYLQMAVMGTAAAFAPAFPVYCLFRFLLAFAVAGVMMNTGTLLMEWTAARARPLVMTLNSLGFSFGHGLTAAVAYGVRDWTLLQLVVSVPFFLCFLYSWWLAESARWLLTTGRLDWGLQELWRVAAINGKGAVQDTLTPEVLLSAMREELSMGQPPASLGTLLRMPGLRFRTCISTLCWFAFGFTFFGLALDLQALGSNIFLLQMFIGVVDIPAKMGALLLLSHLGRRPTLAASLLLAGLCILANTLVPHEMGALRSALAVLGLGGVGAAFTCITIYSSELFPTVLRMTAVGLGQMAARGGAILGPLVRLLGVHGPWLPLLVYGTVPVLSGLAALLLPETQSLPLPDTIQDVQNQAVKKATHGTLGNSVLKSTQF
Procedure: Uptake experiments were performed using MDCKII cells stably expressing the human URAT1 uptake transporter. Cells were cultured at 37±1° C. in an atmosphere of 95:5 air:CO2 and were plated onto standard 96-well tissue culture plates at the cell number described in Table 1.
Radiolabelled probe substrate transport was determined by measuring an aliquot (35 μL) from each well for liquid scintillation counting.

[2] = Solubility of test articles in HBSS assay buffer; conditions: all tested concentrations; highest tested concentration 10 μM
Procedure: Before the experiment, the medium was removed and the cells were washed twice with 100 μL of HBSS without Cl^−. Uptake experiments were carried out at 37±1° C. in 50 μL of HBSS without Cl^−, pH 7.4 containing the probe substrate (20 μM uric acid) and the test article (TA) or solvent.

[3] = cited from earlier work
[4] = Stability in human microsomes; assay type: in vitro ADME; conditions: comparison with benzbromarone
CYP2C9 = CYP2C9 (Homo sapiens, UniProt P11712); test: CYP2C9 metabolic pathway / metabolite formation; assay type: in vitro ADME
Sequence of CYP2C9 (P11712 whole entry): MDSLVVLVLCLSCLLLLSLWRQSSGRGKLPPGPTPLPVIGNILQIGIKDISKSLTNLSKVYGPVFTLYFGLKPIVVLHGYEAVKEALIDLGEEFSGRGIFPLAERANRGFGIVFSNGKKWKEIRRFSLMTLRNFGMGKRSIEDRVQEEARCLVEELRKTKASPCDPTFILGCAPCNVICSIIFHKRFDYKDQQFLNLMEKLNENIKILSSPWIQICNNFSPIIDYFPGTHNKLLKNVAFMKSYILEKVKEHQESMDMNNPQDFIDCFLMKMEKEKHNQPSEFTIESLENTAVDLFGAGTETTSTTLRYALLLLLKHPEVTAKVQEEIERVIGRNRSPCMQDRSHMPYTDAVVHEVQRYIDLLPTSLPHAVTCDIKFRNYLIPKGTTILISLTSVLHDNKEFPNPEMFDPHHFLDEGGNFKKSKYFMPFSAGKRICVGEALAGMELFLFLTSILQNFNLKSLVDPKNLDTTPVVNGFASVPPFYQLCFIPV

| inhibition at 10 µM [1] [%] | solubility in HBSS buffer [2] | stability in human microsomes [4] | in vitro URAT1 potency compared to benzbromarone ([1]; comparison with benzbromarone) | CYP2C9 metabolic pathway of the compound (CYP2C9) | formation of 6-OH benzbromarone and 5,6-di-OH benzbromarone metabolites (CYP2C9) | SMILES | serum uric acid (sUA) level reached ([3]; chronic therapy, target levels) [mg/dL] | hepatotoxicity ([3]; in certain patients) |
| --- | --- | --- | --- | --- | --- | --- | --- | --- |
| 98 | soluble |  |  |  |  | CCc1oc2ccccc2c1C(=O)c1cc(Br)c(O)c(Br)c1 [Benzbromarone, reference compound] | < 6 | associated with hepatotoxicity |
| 100 | soluble | more stable than benzbromarone | better | significantly reduced | not formed | [2H]c1c([2H])c([2H])c2c(C(=O)c3cc(Br)c(O)c(Br)c3)c(C(C)O)oc2c1[2H] (stereo not shown) [Compound 1, (3,5-dibromo-4-hydroxyphenyl) (2-(1-hydroxyethyl)benzofuran-3-yl-4,5,6,7-d4) methanone] |  |  |
